Measured values from patent US7470442B2, “Confectionary compositions with magnolia bark extract” (GIC Innovations Company, priority 2005, dated 2008).
Converted amounts (≈) assume the structure as drawn.

How the values were obtained:
Assay type in all cases: cell-based
Fusobacterium nucleatum [1] = experiment: Minimum-Inhibitory-Concentrations (MIC) study, 96-well microtiter plates; details: 48 hours, 37° C., turbidity at 660 nm
Experimental: (§1) To evaluate the effectiveness of Magnolia Bark Extract, in vitro tests were conducted with three subgingival plaque bacteria associated with oral malodor. The Minimum-Inhibitory-Concentrations (MIC) study protocol is as follows. Chlorhexidine was used as a positive control and sterile water was used as a negative control. Menthol and Tween 80 was used as a solvent for Magnolia Bark Extract. Tween 80 is the common name for Polysorbate 80. Ninety-six-well microtiter plates were used for this study. Each well contained 5×10^5 colony forming units/ml of bacteria, serially diluted agents and bacterial growth medium. All bacterial cultures were incubated at 37° C. and stationary. Bacterial growth was estimated spectrophotometrically at 660 nm, after 48 hours.

Porphyromonas gingivalis [2] = experiment: as above; details: 48 hours, 37° C., turbidity at 660 nm
Experimental: as §1

Streptococcus mutans [3] = experiment: as above; details: 48 hours, 37° C., turbidity at 660 nm
Experimental: as §1

Streptococcus mutans [4] = experiment: Minimum-Bactericidal-Concentrations (MBC), plating on blood agar; details: kills at least 99.9% of initial inoculum
Porphyromonas gingivalis [5] = experiment: as above; details: kills at least 99.9% of initial inoculum
Experimental: as §1, with “hours. […] The Minimum-Bactericidal-Concentrations (MBC) were determined using the 96-well microtiter plate serial dilutions as described above for MIC studies. Serial dilutions of cultures in wells showing no visible growth were performed and 10 microliters of culture were plated in triplicate on blood agar plates. Viable colonies were scored after incubation of the plates for 48 hours at 37° C. For each test bacterium, the number of colony forming units/ml (CFU/ml) was determined in the initial inoculum. The MBC was defined as the lowest concentration of a test compound that killed at least 99.9% of the cells present in the initial inoculum.” for “hours.”

Fusobacterium nucleatum [6] = experiment: as above; details: kills at least 99.9% of initial inoculum
S. mutans [7] = experiment: MIC for growth of S. mutans (comparative testing); details: Streptococcus mutans, BHI with 0.5% sucrose, 48 h
Experimental: (§2) Further to the results described above, the effect of Magnolia Bark Extract on biofilm formation and removal was compared with different herbal and natural ingredients. Comparative testing was performed using green tea extract, Oolong tea extract, Licorice, and Magnolia Bark Extract. The comparative testing included determining the solubility in water, ethanol, water:ethanol mixtures and other solvents (for example, Tween in water), MIC for growth of S. mutans, MIC for formation of S. mutans biofilm in 96-well plates, and the effect on detachment of S. mutans biofilm. To further evaluate the effect on S. mutans biofilm formation, 96-well microtiter plates were used. Each well contained S. mutans (5×10^6 CFU/ml), and was serially diluted with test compounds and growth medium (brain heart infusion broth (BHI) with 0.5% sucrose). The controls included inoculated growth medium without test compounds. All plates were incubated at 37° C. under aerobic condition with growth estimated spectrophotometrically (660 nm) after 48 h using a microtiter plate reader. Then, the supernatant containing unattached cells was removed from each wells by aspiration, the attached biofilm mass was dissolved with 200 μl 1 N NaOH and the optical density was measured at 660 nm using the microtiter plate reader. Chlorhexidine (40 μg/ml) was used as a positive control.

S. mutans biofilm [8] = experiment: MIC for formation of S. mutans biofilm in 96-well plates; details: BHI with 0.5% sucrose, 48 h, attached biofilm OD 660 nm
Experimental: as §2

S. mutans biofilm [9] = experiment: Effect on detachment of S. mutans biofilm; details: pre-formed 48 h S. mutans biofilm, 30 min exposure
Experimental: Further to the results described above, the effect of Magnolia Bark Extract on biofilm formation and removal was compared with different herbal and natural ingredients. Comparative testing was performed using green tea extract, Oolong tea extract, Licorice, and Magnolia Bark Extract. The comparative testing included determining the solubility in water, ethanol, water:ethanol mixtures and other solvents (for example, Tween in water), MIC for growth of S. mutans, MIC for formation of S. mutans biofilm in 96-well plates, and the effect on detachment of S. mutans biofilm. To further evaluate the effect on S. mutans biofilm detachment, sterile 96-well microtiter plates were used where each well was inoculated with S. mutans (5×10^6 CFU/ml), growth medium (BHI supplemented with 0.5% sucrose), and incubated at 37° C. under aerobic condition for biofilm formation. After 48 hours, the non-attached supernatant was aspirated and serially diluted. […] After 30 min, the supernatant was aspirated from wells and the biofilm remaining after treatment was dissolved in 200 μl 1N NaOH, and quantitated at 660 nm using the plate reader. […] If detachment of the biofilm by action of the test compounds occurred, the spectrophotometric absorbance or optical density (OD) should show a decrease compared to the non-treated control.

[10] = test system: bacteria from freshly-collected stimulated whole saliva; experiment: Mixed culture saliva biofilm on saliva-coated hydroxyapatite discs, timed exposure to actives
Experimental: Although useful to show the comparative effect of Magnolia Bark Extract on biofilm formation and MIC growth, the foregoing test procedure may not effectively mimic the in vivo exposure of a confectionary composition such as a pressed tablet to a developing plaque biofilm. In an in vivo situation, the active could be exposed to the plaque for a defined period of time at a set frequency (for example, for 5 minutes, three times a day). Therefore, a series of comparative experiments were conducted to mimic the in vivo use of potential active ingredients. To perform the tests the saliva compositions listed below in Tables 2 and 3 were prepared. A mixed culture system that utilizes the bacteria from freshly-collected stimulated whole saliva was used. Saliva cell pellets were used to inoculate saliva-coated hydroxyapatite (S-HA) discs. The discs were placed in 24-well cell culture plates and incubated for up to 3 days. Biofilms were exposed to actives on days 2 and 3 (starting at 18 hours), and quantified on day 4. The number of bacteria was determined by spectrophotometric absorbance or optical density (OD) at 600 nm. The five phases of the experiment were: pellicle formation; bacterial attachment; biofilm growth; exposure to actives; and bacterial enumeration. To form the pellicles, HA Discs were ultrasonically washed in deionized water and air-dried, then autoclaved. The discs were placed in a 24-well plate with 1 ml 50% sterile saliva (1 part sterile whole saliva: 1 part saliva buffer, filter sterilize after preparation) for 2 hours on slow agitation at room temperature. The saliva was suctioned and then the discs were transferred to fresh wells for bacterial attachment. To form the biofilms, the bacterial suspension was removed, and the discs were transferred to fresh wells. One ml of supplemented saliva medium was added and the plate was placed in the incubator for overnight incubation and for the duration of the experiment (up to 72 hours). A stock solution of 1% Magnolia Bark Extract in 60% ethanol was prepared. Magnolia Bark Extract samples were prepared having a concentration range of 125, 250, 500, and 1000 μg/ml (ppm) in a Phosphate-Buffered-Saline (PBS) solution, where the negative control was PBS and the positive control was CHX having a concentration of 0.12%. […] One ml quantities of active ingredients and controls were placed into fresh wells, and the discs were transferred to these wells for 5 minutes. The chlorhexidine control exposure was one minute, two times a day to mimic the standard mouth-rinse procedure. The exposure to active ingredient was carried out at 8:00 AM, 12:00 and 4:00 PM. After the timed exposure, the solution was removed and the discs washed twice with PBS and then transferred to fresh medium. For some experiments, the medium used during the day was TSB (Tryptic Soy Broth) with a 50 μl 40% sterile sucrose solution added to each well (to give a 2% sucrose solution). The medium was not replaced after the mid-day exposure. After overnight incubation (day 2), discs were exposed to controls and actives. On day 3 the biofilms were again exposed to tests and controls. On day 4 the discs were removed from the medium, the medium pH was measured to obtain an indication of metabolic activity, and the discs were placed into tubes with 2.5 ml PBS, vortexed for 20 sec, and then placed into the ultrasonic bath for another 20 sec. The suspension was transferred into cuvettes and the bacterial cell density determined by OD measurements at 600 nm. To evaluate the effect of Magnolia Bark Extract in combination with the surface active agent, sodium lauryl sulfate, five active ingredient solutions were prepared using the procedures described above. […] Also, the MBE solutions were prepared to have a concentration of 500 ppm. Sodium lauryl sulfate was added to two of the Magnolia Bark Extract solutions to obtain SLS concentrations of 0.05% and 0.1% in the Magnolia Bark Extract solutions. […]

incubated saliva = experiment: MIC of surface active agents and emulsifiers on incubated saliva, two-fold serial dilution; details: for MIC (ppm) / MIC: 24 hours at 37° C.; for germ-kill efficacy in words: summary of Table 9
Experimental: (§3) To evaluate the germ-kill efficacy and synergist effect when two or more germ-kill actives are combined, testing was performed to determine the ratio of MBE to surface active agent. The germ-kill active and/or surface active agent were dissolved in ethanol or sterile water to give an initial concentration 0.1% to 1%. The solution was diluted with a nutrient broth to give an initial concentration of 0.05% to 0.5%, which was then serially diluted two-fold so that each subsequent dilution contained 50% of the compound concentration of the previous dilution while maintaining a constant level of nutrients for each dilution. These dilutions were inoculated with representative oral microorganisms, or incubated saliva, and incubated for 24 hours at 37° C. For each surface active agent, the lowest dilution that was not turbid was registered as the MIC. The MBC was determined by transferring 10 microliter of liquid from non-turbid tubes to fresh growth media and incubated for 48 hours.

S. mutans [11] = experiment: MIC and fractional inhibitory index of combinations on S. mutans; details: 24 hours at 37° C.
Experimental: as §3, with “hours. […] (1) where an FIC value of less than 1.0 is synergistic, an FIC between 1.0 and 2.0 is additive, and an FIC greater than 2.0 is antagonistic.” for “hours.”

[12] = CHX 0.12%, one minute, two times a day, day 4
[13] = repeat experiment with SLS, CHX 0.1% (1000 ppm)
[14] = repeat experiment with SLS, SLS 1000 ppm

Compound: [H]/N=C(\N/C(=N/[H])NCCCCCCNC(=N)NC(=N)Nc1ccc(Cl)cc1)Nc1ccc(Cl)cc1 [CHX, chlorhexidine]
- MIC (Fusobacterium nucleatum [1]): 1.25 µg/mL (≈ 2.47 µM)
- MIC (Porphyromonas gingivalis [2]): 1.25 µg/mL (≈ 2.47 µM)
- MIC (Streptococcus mutans [3]): 1.25 µg/mL (≈ 2.47 µM)
- MBC (Streptococcus mutans [4]): 1.25 µg/mL (≈ 2.47 µM)
- MBC (Porphyromonas gingivalis [5]): 1.25 µg/mL (≈ 2.47 µM)
- MBC (Fusobacterium nucleatum [6]): 1.25 µg/mL (≈ 2.47 µM)
- MIC (S. mutans [7]): 2.5 µg/mL (≈ 4.95 µM)
- MIC biofilm formation (S. mutans biofilm [8]): 2.5 µg/mL (≈ 4.95 µM)
- MIC biofilm detachment (S. mutans biofilm [9]): >10 µg/mL
- % OD reduction at 600 nm compared to PBS control [10, 12]: 84%
- pH of the medium (metabolic activity) [10, 12]: 8.8
- % OD reduction at 600 nm [10, 13]: 94%
- pH of the medium (metabolic activity) [10, 13]: 8.8

Compound: N=C(NCCCCCCNC(=N)NC(=N)Nc1ccc(Cl)cc1)NC(=N)Nc1ccc(Cl)cc1.O=C(O)[C@H](O)[C@@H](O)[C@H](O)[C@H](O)CO.O=C(O)[C@H](O)[C@@H](O)[C@H](O)[C@H](O)CO [Chlorhexidine gluconate, reference compound]
- MIC (ppm) (incubated saliva): 2 ppm
- MIC/ppm (S. mutans [11]): 2 ppm

Compound: CCCCCCCCCCCCOS(=O)(=O)[O-].[Na+] [SLS, sodium lauryl sulfate]
- % OD reduction at 600 nm [10, 14]: 61%
- pH of the medium (metabolic activity) [10, 14]: 5.7
- MIC (incubated saliva): 50 µg/mL
- germ-kill efficacy in words (incubated saliva): good germ-kill surface active agents
- MIC/ppm (S. mutans [11]): 100 ppm

Compound: CCCCCCCCCCCC(=O)OCCOCCOCCOCCOCCOCCOCCOCCOCCOCCOCCOCCOCCOCCOCCOCCOCCOCCOCCOCCOCC(OCCOCCOCCOCCOCCOCCOCCOCCOCCOCCOCCOCCOCCOCCOCCOCCOCCOCCOCCOCCO)C1OCC(OCCOCCOCCOCCOCCOCCOCCOCCOCCOCCOCCOCCOCCOCCOCCOCCOCCOCCOCCOCCO)C1OCCOCCOCCOCCOCCOCCOCCOCCOCCOCCOCCOCCOCCOCCOCCOCCOCCOCCOCCOCCO (stereo not shown) [Tween 20, Polysorbate 20]
- MIC (incubated saliva): > 1000 µg/mL
- germ-kill efficacy in words (incubated saliva): weak or non germ-kill actives

Compound: Cocamidopropyl Betaine
- germ-kill efficacy in words (incubated saliva): good germ-kill surface active agents

Compound: Sodium Brasslate
- MIC (ppm) (incubated saliva): 500 ppm
- germ-kill efficacy in words (incubated saliva): moderate germ-kill efficacy

Compound: Sodium Stearoyl Lactylate
- MIC (ppm) (incubated saliva): >3000 ppm
- germ-kill efficacy in words (incubated saliva): weak or non germ-kill actives

Compound: Sucrose Distearate
- MIC (ppm) (incubated saliva): >500 ppm
- germ-kill efficacy in words (incubated saliva): weak or non germ-kill actives

Compound: Sucrose Stearate
- MIC (ppm) (incubated saliva): >500 ppm
- germ-kill efficacy in words (incubated saliva): weak or non germ-kill actives
